# Measurements as given in patent publication US11149028B2, “Methods for treating melanoma using small molecules” (NOVA SOUTHEASTERN UNIVERSITY, priority 2016, dated 2021).
# “Also recorded” adds a separate entry of the source. Where two headings read alike, the source gives them in different places.
# Assays:
# DDX1 = biological target: T1, DDX1 (Homo sapiens, UniProt Q92499); experiment: DARTS with western blot; type: binding; settings: WM266-4 lysates
# T1 construct: WM-266-4 and M14 cells were sonicated in RIPA lysis buffer; endogenous in cells; host or cells: WM266-4 (and M14) melanoma cells and lysates
# T1 sequence (Q92499 whole entry): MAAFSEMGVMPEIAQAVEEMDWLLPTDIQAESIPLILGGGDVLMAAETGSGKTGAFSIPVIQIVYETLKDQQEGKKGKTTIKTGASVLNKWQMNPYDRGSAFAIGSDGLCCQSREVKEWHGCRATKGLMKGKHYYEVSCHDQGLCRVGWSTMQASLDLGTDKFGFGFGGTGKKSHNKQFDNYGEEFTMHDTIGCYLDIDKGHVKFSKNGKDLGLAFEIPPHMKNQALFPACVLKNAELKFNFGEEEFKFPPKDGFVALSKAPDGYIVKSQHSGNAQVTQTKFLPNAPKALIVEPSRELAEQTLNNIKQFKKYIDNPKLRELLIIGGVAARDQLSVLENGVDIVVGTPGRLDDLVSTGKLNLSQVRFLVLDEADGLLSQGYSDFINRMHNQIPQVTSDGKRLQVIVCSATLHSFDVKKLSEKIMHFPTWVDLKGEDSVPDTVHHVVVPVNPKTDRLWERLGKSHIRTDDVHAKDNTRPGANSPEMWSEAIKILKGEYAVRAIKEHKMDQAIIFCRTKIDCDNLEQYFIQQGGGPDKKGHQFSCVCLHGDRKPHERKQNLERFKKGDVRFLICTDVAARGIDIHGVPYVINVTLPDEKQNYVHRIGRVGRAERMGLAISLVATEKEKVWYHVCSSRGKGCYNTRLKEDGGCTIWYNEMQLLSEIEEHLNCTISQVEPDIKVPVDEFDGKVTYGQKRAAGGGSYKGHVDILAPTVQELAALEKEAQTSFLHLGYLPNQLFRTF
# Source text: (§1) (FIG. 26A, DARTS workflow). Proteins that bind the lead present as bands of differential intensity on SDS-PAGE and are identified using proteomic techniques. […] Bands from non-treated control and sample treated with 2155-14 were excised, trypsinized, and run on LC/MS/MS. […] In addition to lamin A/C, lamin B2, transketolase (TKT), and cytoskeleton-associated protein 4 (CKAP4) were also identified as possible targets (Table 7 shown in FIG. 27). The exclusive unique peptide counts were too close to make the identification of one over the other with confidence.
# (§2) WM266-4 melanoma cell lysates were prepared using a routine protocol with commercially available M-PER buffer supplemented with protease and phosphatase inhibitors. Lysates were split into control and compound test portions, and DMSO and 2155-14 were added to the respective lysate portions and incubated at RT for 1 h to allow for 2155-14 binding to its target(s). Pronase dilutions (1:100. 1:300, 1:1000. 1:3000 and 1:10000, Roche #10165921001) were prepared from 10 mg/mL stock. Lysates were split into 5 aliquots, and pronase dilutions were added to lysate aliquots and incubated at RT for 30 min. […]
# (§3) Each sample was analyzed by liquid-chromatography-tandem MS (LC-MS/MS) using an EASY-nLC 1000 system coupled to a Q Exactive mass spectrometer (Thermo Fisher Scientific). […]
# lamin A/C = experiment: DARTS (drug affinity responsive target stability); type: binding, human
# Source text: as §1, §2, §3
# M14 cells = tested on: M14 cells
# Procedure: ApoTox-Glo™ Triplex Assay which allows one to simultaneously assess the effect of small molecules on cell viability, toxicity, caspase activity, and cell cycle all in the same well (Niles, A. L.; Moravec, R. A.; Riss, T. L. In vitro viability and cytotoxicity testing and same-well multi-parametric combinations for high throughput screening. Curr Chem Genomics 2009, 3, 33-41) was utilized. First, a mixture of 2 fluorogenic substrates was added to cells. GF-AFC substrate is cell-permeant and non-lytic to cells, allowing the measurement of active protease inside live cells. The second substrate (bis-AAF-R110 Substrate) is not cell-permeable and is only cleaved when proteases are released from cells due to the loss of membrane integrity typical of cell death. This step generates an inversely correlated measurement of cell viability and toxicity.
# The second addition is luminogenic DEVD-peptide substrate for caspase-3/7 and Ultra-Glo™ Recombinant Thermostable Luciferase. Caspase-3/7 cleavage of the substrate generates a luminescent signal which correlates with caspase-3/7 activation as a key indicator of apoptosis. As markers for cytotoxicity and apoptosis are transient, the assay was conducted in time course format with time points at 4, 24, 48, and 72 h.
# M14 #5 cells were plated in 384-well format at a density of 1,250 cells in 5 μL of serum-free DMEM media and incubated at 37° C. in 5% CO2 for 4 h. Control and test compounds were serially diluted in a ratio of 1:3 and added to wells in 4 μL. […] Plates were incubated at 37° C. in 5% CO2 for 4, 24, 48, and 72 h. At the end of each time point Viability/Cytotoxicity™ Reagent was prepared containing 400 μM glycylphenylalanyl-aminofluorocoumarin (GF-AFC) substrate (cleavable by live cell proteases) and 400 μM bis-alanylalanyl-phenylalanyl-rhodamine 110 (bis-AAF-R110) substrate (cleavable by dead cell proteases). 4 μL of the Viability/Cytotoxicity™ Reagent was used per well. The plate was incubated for 30 min at 37° C. Fluorescence was read at λEx=400 nm and λEm=505 nm for GF-AFC and λEx=485 nm and λEm=520 nm for bis-AAF-R110 on the BioTek Synergy™ 4 Multi-Mode Microplate Reader. Caspase-Glo® 3/7 Reagent was then added in 12 μL volume. The plate was incubated for 30 min at room temperature and luminescence was measured on the BioTek Synergy™ 4 Multi-Mode Microplate Reader.
# WM266-4 cells = experiment: Mitochondrial potential assay; type: cell-based, human; settings: 1 and 4 h; time stated at the place
# Procedure: 5,000 WM266-4 cells were seeded in 100 μL of EMEM medium supplemented with 10% FBS in 24-well plate. The cells were treated with carbonyl cyanide m-chlorophenyl hydrazone (CCCP, 25-50 μM) as a pharmacological control and 1-100 μM of 2155-14. After 1, 4, and 24 h, the cells were stained with 200 nM of Mito-Tracker dye (ThermoFisher cat #M22425) and DAPI for 1 h. Finally, the cells were washed with PBS and media was added. The cells were imaged and analyzed using Cytation 5 imager using Cy5 and DAPI filter sets (Biotek Inc, Winoosky, Vt.). To calculate staining intensity, the Object Sum Area value from Cy5 channel was obtained and divided by number of cells using DAPI channel. Both Cy5 and DAPI cell counts were conducted using optimized algorithm in automatic mode. 3 replicate wells were used.
# [1] = time course 4-72 h, time stated at the place
smiles,measurement,setting,value
"O=C1NC[C@H](Cc2ccccc2)N(C[C@@H]2CCCN2C[C@@H](CC2CCCCC2)N2C[C@H](Cc3ccc(O)cc3)N(CCc3ccccc3)C(=O)C2=O)C1=O [Compound 2155-14, (S)-1((R)-1((S)-2-(((S)-6-benzyl-2,3-dioxopiperazin-1-yl)methyl)pyrrolidin-1-yl)-3-cyclohexylpropan-2-yl)-5-(4-hydroxybenzyl)-4-phenethylpiperazine-2,3-dione]",protection of DDX1 from pronase,DDX1,protects these proteins from pronase proteolysis
same,DARTS-LC-MS/MS identification of protected band,"lamin A/C; 100 μM, 1:1,000 pronase",Lamin A/C was the protein with the highest score
same,protection of lamin A/C from pronase,"lamin A/C; WM266-4 lysates, western blot",protects these proteins from pronase proteolysis
same,caspase signal,M14 cells; 24 h,550 % of untreated control
same,caspase signal,M14 cells; 48 h,400 % of untreated control
same,ApoTox caspase-3/7 activity,M14 cells; [1],no markers for apoptosis and cytotoxicity; also recorded: The 24 h time point was characterized by a significant spike in caspase activity; also recorded: By 72 h the caspase signal has decayed
same,ApoTox viability (live cell protease),M14 cells; [1],no effect on cell viability as measured by live cell protease at the 4 h time point; also recorded: dose dependent response at 48 h
same,mitochondrial potential,WM266-4 cells,"no significant effect 1 h after the addition of compounds; also recorded: At 4 h, mitochondrial potential was decreased; also recorded: no significance between untreated control and cells treated with 2155-14"
